Experimental data: PMC4891657, “Orexin 2 Receptor Antagonism is Sufficient to Promote NREM and REM Sleep from Mouse to Man” (Scientific Reports, 2016)
Numbering of substitutions follows the chain as printed.

Legend:
OX1R [1] = molecular target: T1, OX1R (Mus musculus, UniProt P58307); assay: Inhibition of orexin-peptide-A-induced calcium mobilization in CHO cells, mouse OX1R; type: cell-based
T1 construct: expressed in transfected cells; host or cells: CHO-K1
T1 sequence (P58307 1-416): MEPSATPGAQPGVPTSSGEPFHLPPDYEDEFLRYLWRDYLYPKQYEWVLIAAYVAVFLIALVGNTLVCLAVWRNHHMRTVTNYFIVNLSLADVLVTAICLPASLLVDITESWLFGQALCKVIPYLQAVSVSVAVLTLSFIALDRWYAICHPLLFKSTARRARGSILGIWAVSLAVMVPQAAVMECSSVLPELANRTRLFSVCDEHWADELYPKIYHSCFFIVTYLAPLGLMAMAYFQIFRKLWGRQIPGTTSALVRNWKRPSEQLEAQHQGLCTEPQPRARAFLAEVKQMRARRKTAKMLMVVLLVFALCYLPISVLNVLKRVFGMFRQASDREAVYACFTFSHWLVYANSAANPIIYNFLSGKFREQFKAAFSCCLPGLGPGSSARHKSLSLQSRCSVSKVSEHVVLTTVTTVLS
Method: (§1) MK-1064 was evaluated for its ability to inhibit orexin-peptide-A-induced calcium mobilization in CHO cell lines separately expressing OX1R and OX2R from mice, rats, rabbits, dogs, rhesus monkeys and humans.
(§2) Binding and functional blockade of OX1R and OX2R with MK-1064 relative to other 2-SORAs and the DORA, MK-6096, were assessed using membranes from Chinese hamster ovary (CHO)-K1 cells (American Type Tissue Collection, Manassas, VA) transfected to express human, mouse, rat, rabbit, dog, or rhesus monkey OX1R or OX2R receptors, as described previously. The kinetics of binding to human OX2R was assessed by radioligand displacement on CHO-K1 cells expressing the receptor. […] The ON rate analysis was performed by presoaking GF/B filters in 0.3% polyethyleneimine (Sigma) using a Skatron 12-well cell harvester and cold buffer at the indicated time points after addition. For OFF rate determination, binding reactions were allowed to proceed to equilibrium and terminated with 1000x [Kd] of unlabeled antagonist and filtered as above at pre-determined time points. Ultima Gold^TM (PerkinElmer 6013327) scintillation cocktail was added to each filter disc and counted on a PerkinElmer TriCarb 2910 scintillation counter. Data were analyzed using GraphPad® Prism v 6.04 (San Diego, CA, USA). The KON rate was determined according to the equation, KON = (KOBS − KOFF)/[ligand].

OX1R [2] = molecular target: T1, OX1R; assay: Radio-ligand displacement binding, CHO-K1 membranes, mouse OX1R; conditions: read-out: OX1R affinity (Ki)
Method: as §1, §2

OX1R [3] = molecular target: T2, OX1R (Macaca mulatta, UniProt F7FE63); assay: Radio-ligand displacement binding, CHO-K1 membranes, rhesus OX1R; set-up: species or system rhesus monkey; conditions: read-out: OX1R affinity (Ki)
T2 sequence (F7FE63 1-425): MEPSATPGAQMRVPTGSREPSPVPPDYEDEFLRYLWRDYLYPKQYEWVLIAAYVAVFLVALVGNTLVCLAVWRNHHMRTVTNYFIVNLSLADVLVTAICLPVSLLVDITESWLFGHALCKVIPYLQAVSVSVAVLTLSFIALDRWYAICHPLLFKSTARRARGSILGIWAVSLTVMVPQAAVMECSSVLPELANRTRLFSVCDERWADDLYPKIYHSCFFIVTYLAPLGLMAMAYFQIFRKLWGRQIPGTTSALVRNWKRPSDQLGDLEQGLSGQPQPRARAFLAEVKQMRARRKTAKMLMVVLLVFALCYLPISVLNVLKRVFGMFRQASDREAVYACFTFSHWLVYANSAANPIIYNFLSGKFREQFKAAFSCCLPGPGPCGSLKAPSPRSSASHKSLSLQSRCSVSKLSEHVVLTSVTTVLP
Method: as §1, §2

OX2R [4] = molecular target: T3, OX2R (Macaca mulatta, UniProt F7CZM2); assay: Radio-ligand displacement binding, CHO-K1 membranes, rhesus OX2R; set-up: species or system rhesus monkey; conditions: for fold OX2R selectivity (Ki): OX1R Ki / OX2R Ki; for Ki: read-out: OX2R affinity (Ki)
T3 sequence (F7CZM2 1-444): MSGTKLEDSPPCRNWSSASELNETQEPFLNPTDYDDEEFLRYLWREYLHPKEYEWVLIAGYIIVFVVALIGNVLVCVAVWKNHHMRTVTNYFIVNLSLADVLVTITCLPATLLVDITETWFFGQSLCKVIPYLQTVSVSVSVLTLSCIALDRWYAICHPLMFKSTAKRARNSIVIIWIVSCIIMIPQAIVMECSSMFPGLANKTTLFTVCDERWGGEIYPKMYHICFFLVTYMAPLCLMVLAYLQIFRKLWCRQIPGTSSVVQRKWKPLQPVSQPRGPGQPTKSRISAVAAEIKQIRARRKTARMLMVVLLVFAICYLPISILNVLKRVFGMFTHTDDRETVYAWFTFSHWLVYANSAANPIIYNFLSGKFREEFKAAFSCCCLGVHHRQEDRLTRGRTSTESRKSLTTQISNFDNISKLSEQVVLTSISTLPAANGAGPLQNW
Method: as §1, §2

OX2R [5] = molecular target: T4, OX2R (Homo sapiens, UniProt O43614); assay: hOX2R binding kinetics (3H-labelled ligand, ON and OFF rate); set-up: expressed in transfected cells; host or cells: CHO-K1; conditions: for hOX2R binding kinetics KON: KON = (KOBS − KOFF)/[ligand]; for Kd / hOX2R binding kinetics KOFF / hOX2R binding kinetics T1/2OFF / hOX2R binding kinetics T1/2ON: room temperature, pH 7.4
T4 sequence (O43614 1-444): T3 sequence (F7CZM2 1-444) with L113V, S195T, M196V, I286M, V308I, T334A, D337E
Method: as §2

| Structure (SMILES) | Kb (OX1R [1]) [nM] | Ki (OX1R [2]) [nM] | Ki (OX1R [3]) [nM] | fold OX2R selectivity (Ki) (OX2R [4]) | Ki (OX2R [4]) [nM] | hOX2R binding kinetics KON (OX2R [5]) [min⁻¹] | Kd (OX2R [5]) [nM] | hOX2R binding kinetics KOFF (OX2R [5]) [mol⁻¹ min⁻¹] | hOX2R binding kinetics T1/2OFF (OX2R [5]) [min] | hOX2R binding kinetics T1/2ON (OX2R [5]) [min] |
| --- | --- | --- | --- | --- | --- | --- | --- | --- | --- | --- |
| Cc1ccc(-c2ncccn2)c(C(=O)N2C[C@H](COc3ccc(F)cn3)CC[C@H]2C)c1 [MK-6096] | 9 | 2.9 | 12.5 | [28.4] fold | 0.44 | 9.19e+06 | 0.34 | 0.0188 | 118.3 | 62.9 |
| COc1ccc(CNC(=O)c2cc(-c3cncc(C)c3)ncc2-c2ccccc2)nc1OC [2-SORA-7] | 7950 | 1690 | 1340 | [1994] fold | 0.67 |  |  |  |  |  |
| COc1ccc(CNC(=O)c2cc(-c3cncc(Cl)c3)cnc2-c2ccccn2)nc1OC [MK-1064, 5″-chloro-N-[(5,6-dimethoxypyridin-2-yl)methyl]-2,2′:5′, 3″-terpyridine-3′-carbo xamide] | 10300 | 1160 | 815 | [1315] fold | 0.62 | 1.19e+07 | 0.51 | 0.00697 | 110 | 21.1 |
| COc1ccc(CNC(=O)c2cc(-c3cncc(C)c3)ncc2-c2nccs2)nc1OC [MK-3697] | 27200 | 3950 | 2180 |  | 1.14 |  | 1.16 |  | 54.4 | 24.3 |
| COc1ccc(CNC(=O)c2cc(-c3cc(Cl)cc(Cl)c3)cnc2-c2cccnc2)cc1OC [2-SORA-18] | 208 | 98 | 132 | [1200] fold | 0.11 |  |  |  |  |  |
